From ChEMBL document CHEMBL1201862, “PubChem BioAssay data set” (2004)
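Assay format: 96-well plates, 48-hour exposure. GI50 marks 50% less growth.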 The source made the active and inactive calls. No stated cut-off is given here; in the data, active = GI50 up to about 1.1 µM and inactive = higher.

Experiments:
Experiment in all cases: growth of human tumour cells (NCI), 48 h
DLD-1 = system: DLD-1
DMS-114 = system: DMS-114
DMS-273 = system: DMS-273
HOP-18 = system: HOP-18
KM-20L2 = system: KM-20L2
M19-MEL = system: M19-MEL
RXF 631 = system: RXF 631
XF498 = system: XF498
SNB-78 = system: SNB-78

Measured: GI50

CO[C@H](c1ccccc1)[C@H](C)N(C)c1ccc2ccccc2c1C1=NC(C)(C)CO1
inactive: DLD-1 13 µM | DMS-114 12.1 µM | DMS-273 19.2 µM | HOP-18 17.1 µM | KM-20L2 13.4 µM | M19-MEL 15.3 µM | RXF 631 15 µM | XF498 17.1 µM

CCCCCCN(N)C(=O)CC#N
inactive: DLD-1 87.3 µM | DMS-114 32.2 µM | DMS-273 > 100 µM | HOP-18 > 100 µM | KM-20L2 > 100 µM | M19-MEL > 100 µM | RXF 631 98.9 µM | SNB-78 > 100 µM

O=C(CC1(O)C(=O)Nc2c(Cl)cc(Cl)cc21)c1cccc([N+](=O)[O-])c1 (centres undefined)
inactive: DLD-1 43.2 µM | DMS-114 21.5 µM | DMS-273 39.4 µM | HOP-18 32.3 µM | KM-20L2 52.1 µM | M19-MEL 5.14 µM | RXF 631 24.8 µM | SNB-78 41.5 µM | XF498 20.7 µM

COC(=O)NC1C(C)OC(OC2C/C=C(/C)C3C=CC4C(OC5CC(OC6CC(O)C(OC7CC(O)C(OC)C(C)O7)C(C)O6)C(O)C(C)O5)C(C)CC(C)C4C3(C)C(=O)C3=C(O)C4(CC(C)C(CO)=CC4/C=C\2C)OC3=O)CC1(C)[N+](=O)[O-] (centres undefined)
inactive: DLD-1 12.7 µM | DMS-114 2.5 µM | DMS-273 11.4 µM | HOP-18 15.1 µM | KM-20L2 17.1 µM | M19-MEL 4.43 µM | RXF 631 21 µM | SNB-78 5.47 µM | XF498 10.6 µM

CC1(O)C(C)(O)C2(C)O[Te]3(OC12C)OC1(C)C(C)(O)C(C)(O)C1(C)O3 (centres undefined)
inactive: DLD-1 33 µM | DMS-114 20 µM | DMS-273 19.3 µM | M19-MEL 22.1 µM | RXF 631 18.5 µM | SNB-78 > 100 µM | XF498 > 100 µM

Cc1cc(Cl)cc2c1NC(=O)C2(O)CC(=O)c1ccc(Br)cc1 (centres undefined)
inactive: DLD-1 50.8 µM | DMS-114 34.8 µM | DMS-273 47.8 µM | KM-20L2 > 91.4 µM | M19-MEL 22.5 µM | RXF 631 > 71.3 µM | XF498 30.2 µM

O=C1OC(=O)C([Se]c2ccccc2)=C1[Se]c1ccccc1
inactive: DLD-1 > 100 µM | DMS-114 > 100 µM | HOP-18 > 100 µM | KM-20L2 > 100 µM | RXF 631 > 100 µM | SNB-78 > 100 µM

C/C(CC(=O)Nc1ccccc1C)=N/NS(=O)(=O)c1ccc(C)cc1
inactive: DLD-1 > 100 µM | DMS-273 > 100 µM | KM-20L2 > 100 µM | M19-MEL > 100 µM | RXF 631 > 100 µM | SNB-78 > 100 µM | XF498 > 100 µM

COC(=O)CC(NC(=O)OCc1ccccc1)C(C(=O)OCc1ccccc1)C1(C)OCCO1 (centres undefined)
inactive: DLD-1 36.1 µM | DMS-114 23.6 µM | DMS-273 39.5 µM | KM-20L2 45.5 µM | M19-MEL 30.2 µM | RXF 631 34.9 µM | XF498 15.8 µM

C/C(=C1/N=C(c2cc([N+](=O)[O-])ccc2Cl)N(c2ccc(Br)cc2)C1=O)c1ccc(N(CCC#N)CCC#N)cc1C
inactive: DLD-1 15.9 µM | DMS-114 12.3 µM | DMS-273 7.23 µM | HOP-18 76.9 µM | KM-20L2 16.1 µM | M19-MEL 29.1 µM | RXF 631 > 100 µM | SNB-78 40.6 µM | XF498 4.71 µM

Cc1cc(Cl)ccc1NC(=O)/C(=N\NC(C)(C)C)C(C#N)c1nc(-c2ccc([N+](=O)[O-])cc2)cs1 (centres undefined)
inactive: DLD-1 > 100 µM | DMS-114 > 100 µM | DMS-273 > 100 µM | HOP-18 > 100 µM | KM-20L2 > 100 µM | M19-MEL > 100 µM | RXF 631 > 100 µM | SNB-78 > 100 µM | XF498 > 100 µM

N#Cc1c(-c2ccc(Cl)c(Cl)c2)c(-c2ccc(Cl)c(Cl)c2)nn(CC(=O)O)c1=O
inactive: DLD-1 63.5 µM | DMS-273 44.7 µM | HOP-18 64.3 µM | KM-20L2 24.2 µM | M19-MEL > 100 µM | RXF 631 64.9 µM | SNB-78 > 100 µM | XF498 27.9 µM
